Measured values from ChEMBL document CHEMBL4665794, “Formicolides A and B, Antioxidative and Antiangiogenic 20-Membered Macrolides from a Wood Ant Gut Bacterium” (J Nat Prod, 2020).

Experiments:
HUVEC = experiment: Anti-angiogenesis activity in HUVEC assessed as inhibition of VEGF-induced tube formation incubated for 6 hrs by capillary tube formation assay; assay type: functional, cell-based; settings: Homo sapiens
[1] = Cytotoxicity against mouse Hepa1c1c7 cells assessed as reduction in cell viability after 24 hrs by MTT assay; assay type: cell-based; settings: hepa1c1c7, 24 h
[2] = target: NAD(P)H dehydrogenase [quinone] 1 (Mus musculus) (UniProt Q64669); experiment: Activation of quinone reductase in mouse Hepa1c1c7 cells at 20 uM incubated for 24 hrs by MTT based assay relative to control; assay type: cell-based; settings: filed as activator
Chain of NAD(P)H dehydrogenase [quinone] 1 (Mus musculus) (Q64669 whole entry): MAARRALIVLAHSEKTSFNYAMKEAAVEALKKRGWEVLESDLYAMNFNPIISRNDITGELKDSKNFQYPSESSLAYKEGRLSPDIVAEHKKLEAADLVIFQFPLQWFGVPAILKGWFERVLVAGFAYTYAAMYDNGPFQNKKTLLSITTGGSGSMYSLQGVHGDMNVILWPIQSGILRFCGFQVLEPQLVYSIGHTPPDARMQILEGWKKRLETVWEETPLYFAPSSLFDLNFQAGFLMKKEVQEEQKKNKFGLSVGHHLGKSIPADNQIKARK

fold change (FC) [2] | Structure (SMILES) | IC50 (HUVEC) | Activity [1]
2.08 | C/C=C\[C@@H](O)CC[C@@H](C)[C@@H](O)[C@H](C)[C@]1(C)C/C=C/C=C/[C@H](O)C(=O)/C(C)=C/C=C/C(C)=C/[C@@H](O)/C(C)=C/CC(=O)O1 | 13 µM | Non-Toxic
 | CCN(CC)CCNC(=O)c1c(C)[nH]c(/C=C2\C(=O)Nc3ccc(F)cc32)c1C [SUNITINIB] | 1.5 µM | 
2.07 | CCC[C@]1(O)C[C@H](O)[C@@H](C)[C@H]([C@H](C)[C@@H]2C/C=C/C=C/[C@H](O)C(=O)/C(C)=C/C=C/C(C)=C/[C@@H](O)/C(C)=C/CC(=O)O2)O1 | 20 µM | Non-Toxic
